Ki and EC50 data for 18 molecules are collected here from patent US8815919B2, “Oxadiazole derivatives” (Merck Serono SA, priority 2009, dated 2014).

Counter-ions that a name gives are not always drawn. Like-named read-outs stand apart in the source and are kept apart here.

Test [1] concerns the target T1, S1P1 (Homo sapiens, UniProt P21453). Kind of test: Receptor binding assay, [33P]sphingosine 1-phosphate competition, S1P1 membranes, WGA SPA beads. The protocol: (§1) Membranes were prepared from CHO cells expressing S1P1 or S1P3 for use in ligand and […] binding studies. Cells were suspended in 50 mM TRIS, pH 7.4, 2 mM EDTA, 250 mM Sucrose (buffer A) and 1× Complete protease inhibitor cocktail (Roche), and disrupted at 4° C. by N2 decompression using a cell disruption bomb (Parr Instrument). Following centrifugation at 1000 RPM for 10 min at 4° C., the supernatant was diluted (2×) in buffer A and centrifuged again at 19000 RPM for 75 min at 4° C. The pellet was then suspended in 10 mM HEPES, pH 7.4, 1 mM EDTA, 250 mM Sucrose (Buffer B), and 1× Complete EDTA-free protease inhibitor cocktail and homogenized using a potter. Membranes were flash frozen in liquid N2 and stored at −80° C.
(§2) Receptor binding assay: [33P]sphingosine 1-phosphate (3000 Ci/mmol; American Radiolabeled Chemicals, Inc.) was added to test compounds in 20% DMSO by competition. Membranes and WGA SPA beads (GE Healthcare) were added to give a final volume of 100 μl in 96-well plates or 50 μl in 384-well plates with assay concentrations of […] [33P]sphingosine 1-phosphate (respectively for S1P1 or S1P3), 50 mM HEPES, pH 7.5, 5 mM MgCl2, 100 mM NaCl, 0.4% fatty acid-free BSA, 1-5 μg/well of proteins in 96-well plates vs 0.6-1 μg/well of proteins in 384-well plates and 100 μg/well of WGA SPA beads in 96-well plates vs 75 μg/well of WGA SPA beads in 384-well plates. Binding was performed for 60 min at RT on a shaker and bound radioactivity was measured on a PerkinElmer 1450 MicroBeta counter. Triplicate samples were averaged and normalized as percentage of inhibition relative to total binding (only DMSO in well) and nonspecific binding (1000-fold excess of unlabeled S1P). Binding data were analyzed using the GraphPad Prism program or Genedata software.
Target sequence in this assay (P21453 whole entry, species assumed): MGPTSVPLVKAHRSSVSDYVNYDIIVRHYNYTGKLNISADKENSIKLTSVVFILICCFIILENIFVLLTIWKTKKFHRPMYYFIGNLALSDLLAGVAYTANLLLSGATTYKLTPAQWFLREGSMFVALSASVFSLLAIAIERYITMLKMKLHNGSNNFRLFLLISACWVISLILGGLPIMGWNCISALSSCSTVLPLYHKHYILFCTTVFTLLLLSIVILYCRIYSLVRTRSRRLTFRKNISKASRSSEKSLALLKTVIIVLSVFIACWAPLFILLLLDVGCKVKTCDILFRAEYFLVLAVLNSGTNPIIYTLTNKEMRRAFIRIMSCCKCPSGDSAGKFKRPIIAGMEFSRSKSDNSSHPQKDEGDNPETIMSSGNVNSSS

Test [2] concerns the target T1, S1P1. Kind of test: S1P1 internalization assay in S1P1-U2OS cells (S1P1-EGFP), cell imaging. The class given is cell-based. Also on record: host or cells: U2OS (human bone osteosarcoma epithelial cells), CMV promoter, geneticin selection. The note with it: 1 hour incubation. The protocol:
Cellular functional assays: Internalization of Sphingosine-1-phosphate receptor 1 (S1P1) in a human Cell line (U2OS) in a 384-well format using a Cell Imaging analysis. • Jo, E.; Sanna, M. G.; Gonzalez-Cabrera, P. J.; Thangada, S.; Tigyi, S.; Osborne, D. A.; Hla, T.; Parrill, A. L.; Rosen, H. Chem. Biol. 2005, 12, 703
The S1P1 internalization assay was performed in 384 well plates (Corning® 384 black with clear bottom 3712) using S1P1-U2OS cells from Biolmage (C039A), a human epithelial cell line (Human Bone Osteosarcoma Epithelial Cells). These cells expressed the human S1P1 Receptor fused to the green fluorescent protein (EGFP). A standard CMV promoter (cytomegalovirus promoter) controls the expression of S1P1-EGFP and continuous expression was maintained by addition of geneticin to the culture medium.
S1P1 Receptor desensitization induced the internalization of the membrane-localized S1P1-EGFP fusion protein to endosomes, which can be monitored by cell imaging analysis. The cells are plated in low serum medium (Dulbecco's Modified Eagle Medium (DMEM) with Glutamax-1 and high glucose, 1% Penicillin/Streptomycin, 1% Fetal Calf Serum (FCS), 0.5 mg/ml Geneticin) overnight.
The next day, S1P1-U2OS cells are incubated in 20 μl serum free medium (DMEM with Glutamax-1 and high glucose, 0.1% of fatty-acid free Bovin Serum Albumin (BSA), 10 mM, N′-2-Hydroxyethylpiperazine-N′-2 ethanesulphonic acid (HEPES) 1M) for 2 hours at 37° C./5% CO2. The cells are then treated with 4 μl compounds/agonists (6×/3% DMSO) for a total volume of 24 μl, and plates are incubated for 1 hour at 37° C./5% CO2.
S1P1-U2OS cells are fixed with 25 μl Paraformaldehyde 8% and stained with Hoechst 33345 dye (1:1000) for 20 minutes.
They were then washed 3 times with Phosphate Buffered Saline (PBS) and plates are sealed. The internalization of the receptor S1P1-EGFP is measured on Cellomics by calculating the “spot count per object” (“object” corresponds to nuclear and “spot” corresponds to S1P1-EGFP receptor). Internalization data were observed thanks to vHCS View and analyzed using Genedata® software.
Target sequence in this assay (P21453 whole entry): as the sequence (P21453 whole entry, species assumed) above

The target in the next test is S1P3 (Homo sapiens, UniProt Q99500). The test can be described thus: Receptor binding assay, [33P]sphingosine 1-phosphate competition, S1P3 membranes, WGA SPA beads. The protocol: as §1, §2
The mark [3] stands for this setting: 96 well-plate, read-out: S1P1 binding Ki (M) (96 well-plate).
[4] abbreviates: 96 well-plate, read-out: S1P3 binding Ki (M) (96 well-plate).
Where [5] appears, read: 384 well-plate, read-out: S1P3 binding Ki (M) (384 well-plate).
[6] abbreviates: 384 well-plate, read-out: S1P1 binding Ki (M) (384 well-plate).

S1P3, sequence (Q99500 whole entry, species assumed): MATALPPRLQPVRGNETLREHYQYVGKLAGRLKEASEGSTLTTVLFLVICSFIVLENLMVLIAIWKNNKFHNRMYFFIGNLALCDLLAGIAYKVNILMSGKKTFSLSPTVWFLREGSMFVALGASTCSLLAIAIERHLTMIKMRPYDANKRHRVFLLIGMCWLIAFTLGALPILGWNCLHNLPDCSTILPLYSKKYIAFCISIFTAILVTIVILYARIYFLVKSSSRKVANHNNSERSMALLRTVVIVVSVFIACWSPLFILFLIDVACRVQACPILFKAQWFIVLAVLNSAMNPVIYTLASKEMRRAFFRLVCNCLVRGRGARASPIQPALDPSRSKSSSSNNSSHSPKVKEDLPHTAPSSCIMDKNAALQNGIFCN

As usually defined, the Ki is a measure of affinity in units of concentration, obtained from inhibition or displacement. One may read the EC50 as the concentration giving half of the maximal effect. A high value points to weaker potency. As to `COCc1cc(-c2nc(-c3ccc(OCCO)c(F)c3)no2)ccc1-c1ccccc1C` [Example 28, 2-(2-fluoro-4-{5-[2-(methoxymethyl)-2′-methylbiphenyl-4-yl]-1,2,4-oxadiazol-3-yl}phenoxy)ethanol], the Ki on S1P1 [1] (setting [3]) amounted to 8.88e-10 M; at S1P3 (setting [4]) it was 2.14e-07 M. For the same molecule, a half-maximal effect at S1P1 [2] (EC50) was put at 11.9 nM.
With `COCc1cc(-c2nc(-c3cccc(CN(C)CC(=O)O)c3)no2)ccc1N1CCCCC1` [Example 29], the figures for the Ki at S1P1 [1] (setting [3]) and on S1P3 (setting [5]) were 1.47e-10 M and 2.38e-07 M, respectively. This molecule also came in with an EC50 on S1P1 [2] of 7.33 nM.
In the case of `CCOc1cc(-c2nc(-c3cccc(CN(C)CC(=O)O)c3)no2)ccc1-c1ccccc1C` [Example 30, N-{3-[5-(2-ethoxy-2′-methylbiphenyl-4-yl)-1,2,4-oxadiazol-3-yl]benzyl}-N-methylglycine, hydrochloride salt], the results for the Ki on S1P1 [1] (setting [3]) and on S1P3 (setting [4]) were 2.01e-10 M and 3e-08 M, respectively. The molecule also registered an EC50 on S1P1 [2] of 8.92 nM.
On to `COCc1cc(-c2nc(-c3cccc(CN(C)CC(=O)O)c3)no2)ccc1-c1ccccc1` [Example 33], for which the Ki at S1P1 [1] (setting [3]) was 1.83e-10 M; at S1P3 (setting [4]) it was 6.24e-08 M. The EC50 at S1P1 [2] stood at 6.96 nM.
As to `COCc1cc(-c2nc(-c3cccc(CN(C)CC(=O)O)c3)no2)ccc1N1CCCC1C` (stereo not shown) [Example 34, N-(3-{5-[3-(methoxymethyl)-4-(2-methylpyrrolidin-1-yl)phenyl]-1,2,4-oxadiazol-3-yl}benzyl)-N-methylglycine], the Ki was 1.18e-10 M at S1P1 [1] (setting [3]) and 3.03e-07 M at S1P3 (setting [4]). For the same molecule, the EC50 at S1P1 [2] was determined as 13.5 nM.
For `COCc1cc(-c2nc(-c3cccc(CN(C)CC(=O)O)c3)no2)ccc1-c1cccc(F)c1C` [Example 35, N-(3-{5-[3′-fluoro-2-(methoxymethyl)-2′-methylbiphenyl-4-yl]-1,2,4-oxadiazol-3-yl}benzyl)-N-methylglycine, hydrochloride salt], the values for the Ki on S1P1 [1] (setting [3]) and on S1P3 (setting [4]) were 1.98e-10 M and 9.4e-08 M, respectively. In addition, the EC50 on S1P1 [2] worked out at 5.88 nM.
Regarding `COCc1cc(-c2nc(-c3cccc(CN(C)CC(=O)O)c3)no2)ccc1-c1ccc(F)cc1C` [Example 36, N-(3-{5-[4′-fluoro-2-(methoxymethyl)-2′-methylbiphenyl-4-yl]-1,2,4-oxadiazol-3-yl}benzyl)-N-methylglycine, hydrochloride salt], the Ki on S1P1 [1] (setting [3]) was found to be 5.59e-10 M; on S1P1 [1] (setting [6]), 1.97e-09 M; at S1P3 (setting [5]), 2.71e-07 M. On S1P1 [2], this molecule yielded an EC50 of 14.8 nM.
Regarding `COCc1cc(-c2nc(-c3cccc(CN(C)CC(=O)O)c3)no2)ccc1-c1cc(F)ccc1C` [Example 37, N-(3-{5-[5′-fluoro-2-(methoxymethyl)-2′-methylbiphenyl-4-yl]-1,2,4-oxadiazol-3-yl}benzyl)-N-methylglycine, hydrochloride salt], the values for the Ki at S1P1 [1] (setting [3]) and on S1P3 (setting [4]) were 3.33e-10 M and 6.34e-08 M, respectively. The midpoint of the response at S1P1 [2], the EC50, lay at 6.56 nM.
`CC1CCCCN1c1ccc(-c2nc(-c3cccc(COCC(=O)O)c3)no2)cc1C(F)(F)F` (stereo not shown) [Example 38, [(3-{5-[4-(2-methylpiperidin-1-yl)-3-(trifluoromethyl)phenyl]-1,2,4-oxadiazol-3-yl}benzyl)oxy]acetic acid, hydrochloride salt]: the Ki came out at 6.22e-10 M at S1P1 [1] (setting [3]) and 6.74e-07 M at S1P3 (setting [4]). The molecule further registered an EC50 at S1P1 [2] of 15.4 nM.
As for `COCc1cc(-c2nc(-c3cccc(CN(C)CC(O)CO)c3)no2)ccc1-c1ccccc1C` (stereo not shown) [Example 39, 3-[(3-{5-[2-(methoxymethyl)-2′-methylbiphenyl-4-yl]-1,2,4-oxadiazol-3-yl}benzyl)(methyl)amino]propane-1,2-diol], the Ki on S1P1 [1] (setting [3]) is 3.71e-10 M; at S1P1 [1] (setting [6]), 2.08e-09 M; on S1P3 (setting [4]), 8.48e-07 M; on S1P3 (setting [5]), 1.18e-06 M. A half-maximal response on S1P1 [2] (EC50) required 13.5 nM.
As for `COCc1cc(-c2nc(-c3cccc(CN(CCO)CCO)c3)no2)ccc1-c1ccccc1C` [Example 40, 2,2′-[(3-{5-[2-(methoxymethyl)-2′-methylbiphenyl-4-yl]-1,2,4-oxadiazol-3-yl}benzyl)imino]diethanol], the figures for the Ki at S1P1 [1] (setting [3]), on S1P3 (setting [4]) and at S1P3 (setting [5]) were 4.52e-10 M, 5.35e-07 M and 9.69e-07 M, respectively. The molecule further displayed a 50% effective concentration (EC50) on S1P1 [2] of 18.2 nM.
`COCc1cc(-c2nc(-c3cccc(CC(=O)NCCN(C)C)c3)no2)ccc1-c1ccccc1C` [Example 41, N-[2-(dimethylamino)ethyl]-2-(3-{5-[2-(methoxymethyl)-2′-methylbiphenyl-4-yl]-1,2,4-oxadiazol-3-yl}phenyl)acetamide]: the figures for the Ki on S1P1 [1] (setting [3]), on S1P1 [1] (setting [6]) and at S1P3 (setting [5]) were 1.27e-09 M, 8.34e-09 M and 4.3e-06 M, respectively. For the same molecule, the response on S1P1 [2] was half-maximal at 76.9 nM (EC50).
In the case of `COCc1cc(-c2nc(-c3cccc(CN(C)CC(=O)O)c3)no2)ccc1-c1ccc(F)c(F)c1C` [Example 42, N-(3-{5-[3′,4′-difluoro-2-(methoxymethyl)-2′-methylbiphenyl-4-yl]-1,2,4-oxadiazol-3-yl}benzyl)-N-methylglycine, hydrochloride salt], the Ki at S1P1 [1] (setting [3]) amounted to 1.82e-10 M; at S1P1 [1] (setting [6]), 1.7e-09 M; at S1P3 (setting [5]), 2.75e-07 M. Besides, the EC50 at S1P1 [2] was 18.3 nM.
In the case of `COCc1cc(-c2nc(-c3cccc(CC(=O)NCCC(=O)O)c3)no2)ccc1-c1ccccc1C` [Example 43, N-[(3-{5-[2-(methoxymethyl)-2′-methylbiphenyl-4-yl]-1,2,4-oxadiazol-3-yl}phenyl)acetyl]-beta-alanine], the Ki on S1P1 [1] (setting [3]) came out at 2.16e-09 M; on S1P1 [1] (setting [6]) it was 6.6e-09 M; at S1P3 (setting [5]), 2e-07 M. At S1P1 [2], the EC50 is 34.5 nM.
In the case of `COCc1cc(-c2nc(-c3cccc(CC(=O)N(C)CC(=O)O)c3)no2)ccc1-c1ccccc1C` [Example 44, N-[(3-{5-[2-(methoxymethyl)-2′-methylbiphenyl-4-yl]-1,2,4-oxadiazol-3-yl}phenyl)acetyl]-N-methylglycine], the results for the Ki on S1P1 [1] (setting [3]), at S1P1 [1] (setting [6]) and on S1P3 (setting [5]) were 1.71e-09 M, 1.02e-08 M and 1.31e-07 M, respectively. The molecule also yielded an EC50 at S1P1 [2] of 115 nM.
As to `C[C@@H]1CCCCN1c1ccc(-c2nc(-c3cccc(CN(C)CC(=O)O)c3)no2)cc1C(F)(F)F` [Example 45, N-methyl-N-(3-{5-[4-[(2R)-2-methylpiperidin-1-yl]-3-(trifluoromethyl)phenyl]-1,2,4-oxadiazol-3-yl}benzyl)glycine, hydrochloride salt], the Ki at S1P1 [1] (setting [3]) was determined as 5.2e-10 M; at S1P3 (setting [4]), 1.82e-07 M. For the same molecule, the EC50 at S1P1 [2] amounted to 12.1 nM.
In the case of `COCc1cc(-c2nc(-c3cccc(CCN(C)CC(=O)OC(C)(C)C)c3)no2)ccc1-c1ccccc1C` [Example 75], the Ki at S1P1 [1] (setting [3]) was 3.04e-09 M. Besides, the EC50 on S1P1 [2] worked out at 195 nM.
As for `Cc1cc(-c2nc(-c3ccc(CN(C)CC(=O)O)cc3)no2)ccc1-c1ccccc1C(F)F` [Example 137, N-(4-{5-[2′-(difluoromethyl)-2-methylbiphenyl-4-yl]-1,2,4-oxadiazol-3-yl}benzyl)-N-methylglycine, hydrochloride salt], the Ki at S1P1 [1] (setting [3]) worked out at 8.55e-10 M; at S1P1 [1] (setting [6]), 2.37e-09 M. The molecule also had an EC50 on S1P1 [2] of 28.9 nM.
